Assay results: patent publication EP0089635A2, “Phospholipid derivatives, process for preparation thereof and pharmaceutical composition of the same” (FUJISAWA PHARMACEUTICAL CO., LTD., priority 1982, dated 1983)

What was measured:
Type in all cases: in vivo, BALB/c mice
Fibrosarcoma Meth A = experiment: Test Method B: survival of mice inoculated intrapleurally with Meth A, injection of test compound into pleural cavity; parameters: dose or concentration left out as unconfirmed; settings: for Anti-tumor activity (%) *f: T/C x 100 of mean survival time, into pleural cavity three times; for Mean survival time: female BALB/c mice, Meth A cells intrapleurally, into pleural cavity three times (before 14 days, after 1 hour, after 3 days of tumor implantation)
Protocol: Groups of eight female BALB/c mice, aged 8-9 weeks and weighing 18.0-22.5 g were used.
Fibrosarcoma Meth A (hereinafter referred to as Meth A) was successively transferred every 7 days into BALB/c mice by intraperitoneal inoculation of the ascites cells thereof and the Meth A in the ascites cells as harvested 6 or 7 days after the inoculation was used as tumor cells.
Each of the BALB/c mice was inoculated intrapleurally with 5 x 10 Meth A cells in 0.1 ml Hanks solution.
Test compound was dissolved in phosphate buffer saline solution, and was injected into pleural cavity to each of the mice in doses of 100 pg/0.05 ml/mouse three times, i.e. before 14 days, after I hour and after 3 days of tumor implantation.
(§1) The control group was given with a vehicle alone in the same way.
The antitumor activity of the test compound was estimated by comparing mean survival time of the two groups. • T : Mean survival time of the medicated group • C : Mean survival time of the control group

[1] = Test Method A: body weight of the treated mice; settings: 100 µg/mouse intratumorally once daily Day 1 to Day 4; for Body weight of mice (g) Day 0 *d: initial day
Protocol: Groups of six female BALB/c mice, aged 12 weeks and weighing 19 - 21 g were used. Test compound was dissolved in 0.5% methylcellulose saline solution, and was intratumorally injected to each of the mice in doses of 100 µg/mouse once daily from Day 1 to Day 4 postimplant. Body weight was checked on initial day and Day 4.

Fibrosarcoma Meth-A = experiment: Test Method A: antitumor effect on intradermally inoculated Meth-A tumor, intratumoral injection of test compound; settings: 100 µg/mouse intratumorally once daily Day 1 to Day 4; for Tumor growth inhibition (%) *b: (1-T/C)x100 of mean tumor diameter on Day 21; for Mean tumor size (mm) *a: female BALB/c mice, 1 x 10^5 Meth-A cells intradermally, mean diameter of tumor on Day 21; for Ratio of tumor free mice *c: groups of six mice
Protocol: Fibrosarcoma Meth-A (hereinafter referred to as Meth-A) was successively transferred every 7 days into BALB/c mice by intraperitoneal inoculation of the ascites cells thereof and the Meth-A in the ascites cells as harvested 6 days after the inoculation was used as tumor cells.
Each of the BALB/c mice was inoculated intradermally with 1 x 10^5 Meth-A cells in 0.05 ml Hanks solution.
as §1
The antitumor effectiveness of the test compound was estimated by tumor growth inhibition : (1-T/C)x100. • T : Mean diameter of the growing tumor of the medicated group on Day 21. • C : Mean diameter of the growing tumor of the control group on Day 21.

With `CCCCCCCCCCCCCCCCCCOCC(COP(=O)([O-])OCC[n+]1ccccc1)OC(=O)Nc1ccccc1` (racemic) [Example 2 - (4), (rac)-1-O-Octadecyl-2-O-phenylcarbamoyl-glycerol-3-[2-(l-pyridinio)ethyl]phosphate] the “Anti-tumor activity (%) *f” value (Fibrosarcoma Meth A) was 117% and the “Mean survival time” value (Fibrosarcoma Meth A) was 7.0 days.

For `CCCCCCCCCCCCCCCCCCOCC(COP(=O)([O-])OCC[n+]1ccccc1)OC(N)=O` (racemic) [Example 3 - (4), (rac)-1-O-0ctadecyl-2-O-carbamoyl-glycerol-3-[2-(1-pyridinio)ethyl]phosphate], the “Anti-tumor activity (%) *f” value (Fibrosarcoma Meth A) was 536% and the “Mean survival time” value (Fibrosarcoma Meth A) was 37.5 days.

For `CCCCCCCCCCCCCCCCCCOCC(COP(=O)(O)OCCN1CCN(C)CC1)OC(N)=O` (racemic) [Example 4, (rac)-l-O-Octadecyl-2-0-carbamoyl-glycerol-3-[2-(4-methyl-l-piperazinyl)ethyl]phosphate], the “Body weight of mice (g) Day 4 *e” value [1] was 20.2 ± 1.11 g, the “Body weight of mice (g) Day 0 *d” value [1] was 19.5 ± 0.60 g and the “Tumor growth inhibition (%) *b” value (Fibrosarcoma Meth-A) was 100%. For the same compound, the “Mean tumor size (mm) *a” value (Fibrosarcoma Meth-A) was 0 mm, the “Ratio of tumor free mice *c” value (Fibrosarcoma Meth-A) was 6/6 and the “Anti-tumor activity (%) *f” value (Fibrosarcoma Meth A) was 236%. The “Mean survival time” value (Fibrosarcoma Meth A) was 16.5 days.

With `CCCCCCCCCCCCCCCCCCOCC(COP(=O)([O-])OCC[n+]1ccccc1)OC(=O)NC` (racemic) [Example 1 - (4), (rac)-1-O-octadecyl-2-O-methylcarbamoyl-glycerol-3-[2-(1-pyridinio)ethyl]-phosphate] the “Body weight of mice (g) Day 4 *e” value [1] was 19.1 ± 1.68 g, the “Body weight of mice (g) Day 0 *d” value [1] was 18.3 ± 1.11 g and the “Tumor growth inhibition (%) *b” value (Fibrosarcoma Meth-A) was 100%. The “Mean tumor size (mm) *a” value (Fibrosarcoma Meth-A) was 0 mm and the “Ratio of tumor free mice *c” value (Fibrosarcoma Meth-A) was 6/6.
